# “And” between values parts separate entries of the source, which are not always exact repeats. Equal entries are not always repeated.
# Tested on: Hepatitis B Virus (HBV) in human HBV producer cell line of HepG2, 2.2.15
# Settings: 100 μM compound, 2.2.15 cells
# Method: Antiviral Activity Against Hepatitis B Virus (HBV)
# The human HBV producer cell line of HepG2, 2.2.15, described and characterized by Sells et al., PNAS 84:1005, 1987 and J. Virol. […] This cell line was utilized in vitro to identify compounds with anti-HBV activity.
# Supernatant media containing extracellular virion DNA (Dane particles) were harvested on days three, six and ten, treated with proteinase K (1 mg/mL) and sodium dodecyl sulfate (1%), and incubated at 50° C. for one hour. DNA was extracted with equal volumes of phenol followed by chloroform and then precipitated by ammonium acetate and propanol. The DNA precipitate was dissolved and collected on nitrocellulose using the procedure of Schleicher and Schuell (S & S, 10 Optical Ave., Keene, N.H. 03431, Publication No. 700, 1987), and treated as described by Southern, J. Mol. Biol. 98:503, 1975. Cells were harvested, and the intracellular DNA was obtained after cell lysis with guanidine isothiocyanate. The intracellular DNA was handled in the same manner as the extracellular DNA. After precipitation by ammonium acetate and propanol, the intracellular DNA precipitate was dissolved, cut by restriction endonuclease, Hind III, applied to agarose gel and then treated as described by Southern to determine the quantity of replicative intermediate forms.
# [1] = analysis 24 hours following the 10th day of treatment, duplicate cultures, experiments A and B
structure (smiles),measurement,setting,value
"Nc1nc(=O)n([C@@H]2CS[C@H](CO)O2)cc1F (racemic) [cis-1-(2-(Hydroxymethyl)-1,3-oxathiolan-5-yl)-5-fluoro-cytosine]","HBV DNA in Culture Medium, Day 0","Day 0, zero = undetectable, sensitivity cutoff 0.1 pg/mL",90 pg/mL
same,"HBV DNA in Culture Medium, Day 10","Day 10, zero = undetectable, sensitivity cutoff 0.1 pg/mL",0 pg/mL
same,"Intracellular HBV DNA, Monomer",[1],0.8 pg/μg cell DNA and 0.7 pg/μg cell DNA
same,"Intracellular HBV DNA, Replicative intermediate",[1],1 pg/μg cell DNA and 2 pg/μg cell DNA

# From patent US7053100B2, “Therapeutic nucleosides” (priority 1991, dated 2006)
